Type in all cases: functional, cell-based
The subject of one experiment is HeLa. Description: Antiproliferative activity against human HeLa cells assessed as cell viability after 72 hrs by MTT assay. A general note: Tetrazolium dyes change colour on reduction, which living cells bring about.
The subject of a further experiment is MCF7. The experiment can be described thus: Antiproliferative activity against human MCF7 cells assessed as cell viability after 72 hrs by MTT assay. The conditions noted are these: MCF7, 72 h.
A further experiment deals with HepG2. The experiment can be described thus: Antiproliferative activity against human HepG2 cells assessed as cell viability after 72 hrs by MTT assay. The following applies: HepG2, 72 h.
For the next experiment, the system named is A549. Description: Antiproliferative activity against human A549 cells assessed as cell viability after 72 hrs by MTT assay. The following applies: A549, 72 h.
Experiment [1] in a line: Antiproliferative activity against human HCT116 cells assessed as cell viability after 72 hrs by MTT assay. The following applies: HCT-116, 72 h.
Experiment [2] in a line: Antiproliferative activity against human HL60 cells assessed as cell viability after 72 hrs by MTT assay. The following applies: HL-60, 72 h.
The nature of experiment [3]: Cytotoxicity against mouse J774A1 cells assessed as cell viability after 72 hrs by MTT assay. The following applies: J774.A1, 72 h.

A value given as a limit tells only on which side of the number the result lay.

By IC50 is commonly meant the concentration at which inhibition is half-maximal. For `CC1(C)CC[C@]2(C(=O)O)CC[C@]3(C)C(=CC[C@@H]4[C@@]5(C)CC[C@H](O[C@@H]6O[C@H](CO[C@@H]7OC[C@H](O)[C@H](O)[C@H]7O)[C@@H](O)[C@H](O)[C@H]6NC(=O)/C=C/c6cccc(Br)c6)C(C)(C)[C@@H]5CC[C@]43C)[C@@H]2C1`, the half-maximal inhibitory concentration (IC50) in the experiment with HeLa is > 50 µM; with MCF7 it was > 50 µM; in the experiment on HepG2, > 50 µM; with A549 it was > 50 µM; in experiment [1], 10.2 µM; in experiment [2], > 50 µM.

With `O=c1[nH]cc(F)c(=O)[nH]1` [FLUOROURACIL], the IC50 in the experiment with HeLa was 26.2 µM; with MCF7 it was 26.1 µM; with HepG2, 49 µM; in the experiment with A549, > 50 µM; in experiment [1], 38.3 µM; in experiment [2], 27.4 µM.

Regarding `CC1(C)CC[C@]2(C(=O)O)CC[C@]3(C)C(=CC[C@@H]4[C@@]5(C)CC[C@H](O[C@@H]6O[C@H](CO[C@@H]7OC[C@H](O)[C@H](O)[C@H]7O)[C@@H](O)[C@H](O)[C@H]6NC(=O)/C=C/c6ccc(Cl)cc6)C(C)(C)[C@@H]5CC[C@]43C)[C@@H]2C1`, the IC50 (with HeLa; in the experiment with MCF7; with HepG2; with A549; in experiment [1]; in experiment [2]) was > 50 µM throughout.

With `CC1(C)CC[C@]2(C(=O)O)CC[C@]3(C)C(=CC[C@@H]4[C@@]5(C)CC[C@H](O[C@@H]6O[C@H](CO[C@@H]7OC[C@H](O)[C@H](O)[C@H]7O)[C@@H](O)[C@H](O)[C@H]6NC(=O)/C=C/c6cccc(F)c6)C(C)(C)[C@@H]5CC[C@]43C)[C@@H]2C1`, the concentration for half-maximal inhibition (IC50) in the experiment on HeLa was 48.4 µM; in the experiment with MCF7 it was > 50 µM; with HepG2, > 50 µM; in the experiment with A549, 32.8 µM; in experiment [1], 8.5 µM; in experiment [2], > 50 µM.

With `CC1(C)CC[C@]2(C(=O)O)CC[C@]3(C)C(=CC[C@@H]4[C@@]5(C)CC[C@H](O[C@@H]6O[C@H](CO[C@@H]7OC[C@H](O)[C@H](O)[C@H]7O)[C@@H](O)[C@H](O)[C@H]6NC(=O)/C=C/c6ccccc6)C(C)(C)[C@@H]5CC[C@]43C)[C@@H]2C1`, the concentration for half-maximal inhibition (IC50) is 40.2 µM in the experiment with HeLa; 45.2 µM in the experiment on MCF7; > 50 µM in the experiment with HepG2; > 50 µM in the experiment with A549; 19.3 µM in experiment [1]; > 50 µM in experiment [2].

On to `COc1cccc(/C=C/C(=O)N[C@H]2[C@H](O[C@H]3CC[C@]4(C)[C@H]5CC=C6[C@@H]7CC(C)(C)CC[C@]7(C(=O)O)CC[C@@]6(C)[C@]5(C)CC[C@H]4C3(C)C)O[C@H](CO[C@@H]3OC[C@H](O)[C@H](O)[C@H]3O)[C@@H](O)[C@@H]2O)c1OC`, for which the IC50 (in the experiment with HeLa; with MCF7; in the experiment with HepG2; with A549; in experiment [1]; in experiment [2]) was > 50 µM each time.

For `CCOc1ccc(/C=C/C(=O)N[C@H]2[C@H](O[C@H]3CC[C@]4(C)[C@H]5CC=C6[C@@H]7CC(C)(C)CC[C@]7(C(=O)O)CC[C@@]6(C)[C@]5(C)CC[C@H]4C3(C)C)O[C@H](CO[C@@H]3OC[C@H](O)[C@H](O)[C@H]3O)[C@@H](O)[C@@H]2O)cc1`, the IC50 is > 50 µM in the experiment on HeLa; > 50 µM in the experiment on MCF7; > 50 µM in the experiment on HepG2; > 50 µM with A549; 13 µM in experiment [1]; > 50 µM in experiment [2].

With `Cc1ccc(/C=C/C(=O)N[C@H]2[C@H](O[C@H]3CC[C@]4(C)[C@H]5CC=C6[C@@H]7CC(C)(C)CC[C@]7(C(=O)O)CC[C@@]6(C)[C@]5(C)CC[C@H]4C3(C)C)O[C@H](CO[C@@H]3OC[C@H](O)[C@H](O)[C@H]3O)[C@@H](O)[C@@H]2O)cc1`, the IC50 with HeLa is > 50 µM; in the experiment on MCF7, 38.1 µM; in the experiment with HepG2, > 50 µM; in the experiment on A549, > 50 µM; in experiment [1], 16.3 µM; in experiment [2], > 50 µM.

For the molecule `CC1(C)CC[C@]2(C(=O)O)CC[C@]3(C)C(=CC[C@@H]4[C@@]5(C)CC[C@H](O[C@@H]6O[C@H](CO[C@@H]7OC[C@H](O)[C@H](O)[C@H]7O)[C@@H](O)[C@H](O)[C@H]6NC(=O)/C=C/c6ccc(OCc7ccccc7)cc6)C(C)(C)[C@@H]5CC[C@]43C)[C@@H]2C1`, the concentration for half-maximal inhibition (IC50) was > 50 µM in the experiment on HeLa; > 50 µM with MCF7; > 50 µM with HepG2; > 50 µM in the experiment with A549; 23.8 µM in experiment [1]; > 50 µM in experiment [2].

With `CC(=O)N[C@H]1[C@H](O[C@H]2CC[C@]3(C)[C@H]4CC=C5[C@@H]6CC(C)(C)CC[C@]6(C(=O)O)CC[C@@]5(C)[C@]4(C)CC[C@H]3C2(C)C)O[C@H](CO)[C@@H](O)[C@@H]1O[C@@H]1O[C@H](CO)[C@H](O)[C@H](O)[C@H]1O` [LOTOIDOSIDE E], the IC50 in experiment [3] is 18 nM.

For `CC1(C)CC[C@]2(C(=O)O)CC[C@]3(C)C(=CC[C@@H]4[C@@]5(C)CC[C@H](O[C@@H]6O[C@H](CO[C@@H]7OC[C@H](O)[C@H](O)[C@H]7O)[C@@H](O)[C@H](O)[C@H]6NC(=O)/C=C/c6cccc(Cl)c6)C(C)(C)[C@@H]5CC[C@]43C)[C@@H]2C1`, the IC50 in the experiment on HeLa is > 50 µM; with MCF7, > 50 µM; in the experiment with HepG2, > 50 µM; in the experiment on A549, > 50 µM; in experiment [1], 11.9 µM; in experiment [2] it was > 50 µM.

`CC1(C)CC[C@]2(C(=O)O)CC[C@]3(C)C(=CC[C@@H]4[C@@]5(C)CC[C@H](O[C@@H]6O[C@H](CO[C@@H]7OC[C@H](O)[C@H](O)[C@H]7O)[C@@H](O)[C@H](O)[C@H]6NC(=O)/C=C/c6ccc(C(C)(C)C)cc6)C(C)(C)[C@@H]5CC[C@]43C)[C@@H]2C1`: the IC50 in the experiment on HeLa is 39.2 µM; with MCF7 it was > 50 µM; in the experiment on HepG2, > 50 µM; in the experiment on A549 it was > 50 µM; in experiment [1] it was 13.6 µM; in experiment [2], > 50 µM.

For the molecule `CC(=O)N[C@H]1[C@H](O[C@H]2CC[C@]3(C)[C@H]4CC=C5[C@@H]6CC(C)(C)CC[C@]6(C(=O)O)CC[C@@]5(C)[C@]4(C)CC[C@H]3C2(C)C)O[C@H](CO)[C@@H](O[C@@H]2O[C@H](CO)[C@@H](O)[C@H](O)[C@H]2O)[C@@H]1O[C@H]1O[C@@H](CO)[C@@H](O)[C@@H](O)[C@@H]1O`, the concentration for half-maximal inhibition (IC50) in experiment [3] was determined as 150 nM.

With `COc1ccc(OC)c(/C=C/C(=O)N[C@H]2[C@H](O[C@H]3CC[C@]4(C)[C@H]5CC=C6[C@@H]7CC(C)(C)CC[C@]7(C(=O)O)CC[C@@]6(C)[C@]5(C)CC[C@H]4C3(C)C)O[C@H](CO[C@@H]3OC[C@H](O)[C@H](O)[C@H]3O)[C@@H](O)[C@@H]2O)c1`, the IC50 (with HeLa; in the experiment on MCF7; with HepG2; in the experiment with A549; in experiment [1]; in experiment [2]) was > 50 µM in each case.

These data come from ChEMBL document CHEMBL3774313, “Natural product-based design, synthesis and biological evaluation of Albiziabioside A derivatives that selectively induce HCT116 cell death” (Eur J Med Chem, 2016).
